The record followed here is patent US8163756B2 (priority 2004, dated 2012).

Holding throughout (assay type): biochemical
Assay [1] concerns the target T1, Abl kinase (Homo sapiens, UniProt P00519).
T1 sequence (P00519 229-512): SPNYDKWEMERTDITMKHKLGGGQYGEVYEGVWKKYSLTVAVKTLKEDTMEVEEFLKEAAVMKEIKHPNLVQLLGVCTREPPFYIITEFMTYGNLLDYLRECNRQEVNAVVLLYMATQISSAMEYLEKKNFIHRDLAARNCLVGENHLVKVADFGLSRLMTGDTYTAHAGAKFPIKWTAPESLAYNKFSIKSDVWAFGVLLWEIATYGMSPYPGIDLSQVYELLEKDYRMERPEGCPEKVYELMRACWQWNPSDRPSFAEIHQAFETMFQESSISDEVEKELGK
Nature of the assay: Abl kinase assay A2 (as A1, 1.1 nM enzyme, 2 h pre-incubation, 0.5 mM ATP). The protocol: (§1) IC50 values were calculated from a series of percent inhibition values determined at a range of inhibitor concentrations using software routines as implemented in the GraphPad Prism software package.

In a further assay the target is B-Raf(V599E) kinase (Homo sapiens, UniProt P15056, V600E). Put plainly: B-Raf(V599E) kinase assay B1 (construct 1, MEK1 substrate, coupled spectrophotometric). The protocol: The test compounds were incubated with the reaction mixtureat 30° C. for 2 h. […] The reaction rate was calculated using the […] time frame. […] IC50 values were calculated from a series of percent inhibition values determined at a range of inhibitor concentrations using software routines as implemented in the GraphPad Prism software package.

Assay [2] addresses T1, Abl kinase. Put plainly: Abl kinase assay A1 (pyruvate kinase/lactate dehydrogenase coupled, spectrophotometric). The note with it: Method A1; read-out: Abl Data (IC50). The protocol: as §1
The next assay addresses KDR kinase (Homo sapiens, UniProt P35968, DEL940-989/E990V). Put plainly: KDR kinase assay K2 (as K1, 2.1 nM enzyme, 2 h pre-incubation, 1.0 mM ATP). The conditions noted are these: Method K2; read-out: KDR Data (IC50). The protocol: as §1
Assay [3] addresses phosphorylated p-38-alpha kinase (Homo sapiens, UniProt Q16539). Nature of the assay: P-38 alpha kinase assay P1 (coupled spectrophotometric, 2 h pre-incubation). The conditions noted are these: method P1 (2 h pre-incubation); read-out: P-38 Data.
Setting [4] is: Method A2, read-out: Abl Data (IC50).

As usually defined, the inhibition is the drop in the measured response relative to a control, in per cent.

Counter-ions that a name gives are not always drawn.

Sequence of B-Raf(V599E) kinase (P15056 with tags, fused parts or gaps V600E): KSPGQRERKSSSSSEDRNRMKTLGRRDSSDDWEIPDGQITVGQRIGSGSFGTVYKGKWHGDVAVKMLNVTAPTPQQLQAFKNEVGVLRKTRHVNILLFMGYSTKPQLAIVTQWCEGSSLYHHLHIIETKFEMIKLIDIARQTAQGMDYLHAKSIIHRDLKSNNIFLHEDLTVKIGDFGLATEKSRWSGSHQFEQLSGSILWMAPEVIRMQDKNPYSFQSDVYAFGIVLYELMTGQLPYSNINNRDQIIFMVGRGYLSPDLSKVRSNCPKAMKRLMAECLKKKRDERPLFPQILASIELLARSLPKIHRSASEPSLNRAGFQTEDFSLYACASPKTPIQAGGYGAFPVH
Sequence of phosphorylated p-38-alpha kinase (Q16539 1-360 isoform Q16539-2): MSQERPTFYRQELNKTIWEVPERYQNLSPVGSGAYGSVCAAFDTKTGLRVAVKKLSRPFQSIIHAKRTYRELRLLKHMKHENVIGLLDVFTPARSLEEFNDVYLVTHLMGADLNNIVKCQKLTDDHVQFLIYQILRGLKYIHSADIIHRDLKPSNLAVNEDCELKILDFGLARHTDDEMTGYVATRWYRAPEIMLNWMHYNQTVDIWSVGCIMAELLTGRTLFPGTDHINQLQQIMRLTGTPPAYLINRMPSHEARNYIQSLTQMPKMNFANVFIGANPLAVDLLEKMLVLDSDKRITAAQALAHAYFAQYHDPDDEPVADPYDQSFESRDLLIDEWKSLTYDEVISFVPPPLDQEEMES
Sequence of KDR kinase (P35968 with tags, fused parts or gaps DEL940-989/E990V): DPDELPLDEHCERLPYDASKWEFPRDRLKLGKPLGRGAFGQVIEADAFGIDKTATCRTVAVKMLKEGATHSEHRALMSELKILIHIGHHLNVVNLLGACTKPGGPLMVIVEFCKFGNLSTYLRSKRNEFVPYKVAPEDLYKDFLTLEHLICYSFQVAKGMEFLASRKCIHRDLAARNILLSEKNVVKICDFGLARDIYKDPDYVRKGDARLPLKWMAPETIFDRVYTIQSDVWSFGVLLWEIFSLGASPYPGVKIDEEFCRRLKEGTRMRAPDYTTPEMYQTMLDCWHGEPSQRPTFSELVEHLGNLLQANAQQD

Regarding `CC(C)(C)c1cc(NC(=O)Nc2ccc(-c3cccc4c3CNC4=O)cc2)n(-c2ccc3c(c2)CC(C(=O)O)NC3)n1` (stereo not shown) [Example 181, 6-(3-t-butyl-5-(3-(4-(1-oxoisoindolin-4-yl)phenyl)ureido)-1H-pyrazol-1-yl)-1,2,3,4-tetrahydroisoquinoline-3-carboxylic acid], the IC50 at Abl kinase [1] (setting [4]) amounted to 6.6 nM. With `CNC(=O)c1cc(Oc2ccc(NC(=O)Nc3cc(C(C)(C)C)nn3-c3ccc4nc(N5CC[C@@H](N(C)C)C5)ccc4c3)cc2)ccn1` [Example 173, 1-(3-t-butyl-1-(2-((R)-3-(dimethylamino)pyrrolidin-1-yl)quinolin-6-yl)-1H-pyrazol-5-yl)-3-(4-(2-(methylcarbamoyl)pyridin-4-yloxy)phenyl)urea], the IC50 on Abl kinase [1] (setting [4]) came to 4.2 nM; on B-Raf(V599E) kinase, 63 nM. The like results for `CC(C)(C)c1cc(NC(=O)Nc2cc(F)c(F)cc2F)n(-c2cc(CC(N)=O)c3ccccc3c2)n1` [Example 81, 1-(1-(4-(2-amino-2-oxoethyl)naphthalen-2-yl)-3-t-butyl-1H-pyrazol-5-yl)-3-(2,4,5-trifluorophenyl)urea] were, in that order, 120 nM and 4.1 nM. With `CC(C)(C)c1cc(NC(=O)Nc2cc(F)cc(C#N)c2)n(-c2ccc3c(c2)CCNC3)n1` [Example 152, 1-(3-t-butyl-1-(1,2,3,4-tetrahydroisoquinolin-6-yl)-1H-pyrazol-5-yl)-3-(3-cyano-5-fluorophenyl)urea hydrochloride], the IC50 at Abl kinase [1] amounted to 570 nM.

For `CC(C)(C)c1cc(NC(=O)Nc2ccc(-c3cccc4c3CNC4=O)cc2)n(-c2ccc3c(c2)CCN3)n1` [Example 191, 1-(3-t-butyl-1-(indolin-5-yl)-1H-pyrazol-5-yl)-3-(4-(1-oxoisoindolin-4-yl)phenyl)urea], on Abl kinase [1] (setting [4]), the IC50 turned out to be 21 nM. In the case of `CC(C)(C)c1cc(NC(=O)Nc2cc(F)c(F)cc2F)n(-c2ccc3c(c2)CCNC3)n1` [Example 146, 1-(3-t-butyl-1-(1,2,3,4-tetrahydroiso-quinolin-6-yl)-1H-pyrazol-5-yl)-3-(2,4,5-trifluorophenyl)-urea], the IC50 was 190 nM at Abl kinase [1] (setting [4]) and 8.8 nM against B-Raf(V599E) kinase. For `CC(C)(C)c1cc(NC(=O)Nc2ccc(-c3cccc4c3CNC4=O)cc2)n(-c2ccc3c(c2)CCN3S(C)(=O)=O)n1` [Example 192, 1-(3-t-butyl-1-(1-(methylsulfonyl)indolin-5-yl)-1H-pyrazol-5-yl)-3-(4-(1-oxoisoindolin-4-yl)phenyl)urea], the IC50 on Abl kinase [1] (setting [4]) worked out at 27 nM. As to `CC(C)(C)c1cc(NC(=O)Nc2cccc(C#N)c2)n(-c2ccc3c(c2)CCNC3)n1` [Example 139, 1-(3-t-butyl-1-(1,2,3,4-tetrahydro-isoquinolin-6-yl)-1H-pyrazol-5-yl)-3-(3-cyanophenyl)urea], at Abl kinase [1] (setting [4]), the IC50 was 140 nM. Regarding `CC(C)(C)c1cc(NC(=O)Nc2cccc(Oc3cccnc3)c2)n(-c2ccc3c(c2)CC(C(=O)NCC(O)CO)NC3)n1` (stereo not shown) [Example 182, 1-(1-(3-((2,3-dihydroxypropyl)carbamoyl)-1,2,3,4-tetrahydroisoquinolin-6-yl)-3-t-butyl-1H-pyrazol-5-yl)-3-(3-(pyridin-3-yloxy)phenyl)urea], on Abl kinase [1] (setting [4]), the IC50 turned out to be 3.4 nM. As for `Cc1ccc(NC(=O)Nc2cc(C(C)(C)C)nn2-c2ccc3nc(N4CCNCC4)ccc3c2)cc1Nc1nccc(-c2cccnc2)n1` [Example 171, 1-(3-t-butyl-1-(2-(piperazin-1-yl)quinolin-6-yl)-1H-pyrazol-5-yl)-3-(4-methyl-3-(4-(pyridin-3-yl)pyrimidin-2-ylamino)phenyl)urea], the IC50 on Abl kinase [1] (setting [4]) came out at 4 nM. For the molecule `CNC(=O)c1cc(Oc2ccc(NC(=O)Nc3cc(C(C)(C)C)nn3-c3ccc4nc(N5CCNCC5)ccc4c3)cc2)ccn1` [Example 170, 1-(3-t-butyl-1-(2-(piperazin-1-yl)quinolin-6-yl)-1H-pyrazol-5-yl)-3-(4-(2-(methylcarbamoyl)pyridin-4-yloxy)phenyl)urea], the figures for the IC50 at Abl kinase [1] (setting [4]) and on B-Raf(V599E) kinase were 1.8 nM and 40 nM, respectively. As for `Cn1c(=O)c(-c2cccc(NC(=O)Nc3cc(C4CCCC4)nn3-c3ccc4[nH]c(=O)ccc4c3)c2)cc2cncnc21` [Example 162, 1-(3-cyclopentyl-1-(2-oxo-1,2-dihydroquinolin-6-yl)-1H-pyrazol-5-yl)-3-(3-(8-methyl-7-oxo-7,8-dihydropyrido[2,3-d]pyrimidin-6-yl)phenyl)urea], the IC50 was 80 nM on Abl kinase [1] (setting [4]) and 6.7 nM against B-Raf(V599E) kinase. On to `O=C(Nc1cccc(Oc2cccnc2)c1)Nc1cc(C2CCCC2)nn1-c1ccc2[nH]c(=O)ccc2c1` [Example 164, 1-(3-cyclopentyl-1-(2-oxo-1,2-dihydroquinolin-6-yl)-1H-pyrazol-5-yl)-3-(3-(pyridin-3-yloxy)phenyl)urea], for which the IC50 on Abl kinase [1] (setting [4]) came to 33 nM.

Consider `CC(C)(C)c1cc(NC(=O)Nc2cccc(-c3ccc(N)nc3)c2)n(-c2ccc3c(c2)CCC(=O)N3)n1` [Example 160, 1-(3-(6-aminopyridin-3-yl)phenyl)-3-(3-t-butyl-1-(2-oxo-1,2,3,4-tetrahydroquinolin-6-yl)-1H-pyrazol-5-yl)urea], for which, at Abl kinase [1] (setting [4]), the IC50 worked out at 14900 nM. Regarding `CC(C)(C)c1cc(NC(=O)Nc2cccc(-c3cccnc3)c2)n(-c2ccc3c(c2)CCC(=O)N3)n1` [Example 161, 1-(3-t-butyl-1-(2-oxo-1,2,3,4-tetrahydroquinolin-6-yl)-1H-pyrazol-5-yl)-3-(3-(pyridin-3-yl)phenyl)urea], the inhibition at 1 µM on Abl kinase [1] (@ 1 μM, Method A2, read-out: Abl Data (percent inhibition)) is 3%. As for `CC(C)(C)c1cc(NC(=O)Nc2ccc(-c3cccc4c3CNC4=O)cc2)n(-c2ccc3c(c2)CC(C(N)=O)NC3)n1` (stereo not shown) [Example 183, 1-(3-t-butyl-1-(3-carbamoyl-1,2,3,4-tetrahydroisoquinolin-6-yl)-1H-pyrazol-5-yl)-3-(4-(1-oxoisoindolin-4-yl)phenyl)urea], the IC50 at Abl kinase [1] (setting [4]) is 20 nM. Consider `CC(C)(C)c1cc(NC(=O)Nc2cccc(Cl)c2Cl)n(-c2ccc3nc(N4CCNCC4)ccc3c2)n1` [Example 168, 1-(3-t-butyl-1-(2-(piperazin-1-yl)quinolin-6-yl)-1H-pyrazol-5-yl)-3-(2,3-dichlorophenyl)urea], for which the values for the IC50 on Abl kinase [1] (setting [4]) and against B-Raf(V599E) kinase were 1100 nM and 30 nM, respectively. The like results for `CNC(=O)c1cc(Oc2ccc(NC(=O)Nc3cc(C(C)(C)C)nn3-c3ccc4nc(NCCN)ccc4c3)cc2)ccn1` [Example 172, 1-(1-(2-(2-aminoethylamino)quinolin-6-yl)-3-t-butyl-1H-pyrazol-5-yl)-3-(4-(2-(methylcarbamoyl)pyridin-4-yloxy)phenyl)urea] were, in that order, 1.9 nM and 29 nM. For `CC(C)(C)c1cc(NC(=O)Nc2cc(F)cc(F)c2F)n(-c2cc(CC(=O)NCC(O)CO)c3ccccc3c2)n1` (stereo not shown) [Example 95, 1-(3-t-butyl-1-(4-(2-(2,3-dihydroxypropyl-amino)-2-oxoethyl)naphthalen-2-yl)-1H-pyrazol-5-yl)-3-(2,3,5-trifluorophenyl)urea], the figures for the IC50 at Abl kinase [1] (setting [4]) and against B-Raf(V599E) kinase were 56 nM and 2.9 nM, respectively. The like results for `CNC(=O)c1cc(Oc2ccc(NC(=O)Nc3cc(C4CCCC4)nn3-c3ccc4[nH]c(=O)ccc4c3)cc2)ccn1` [Example 163, 1-(3-cyclopentyl-1-(2-oxo-1,2-dihydroquinolin-6-yl)-1H-pyrazol-5-yl)-3-(4-(2-(methylcarbamoyl)pyridin-4-yloxy)phenyl)urea] were, in that order, 6.3 nM and 18 nM.

`CC(C)(C)c1cc(NC(=O)Nc2cccc(Oc3cccnc3)c2)n(-c2ccc3c(c2)CCNC3C(=O)NCC(O)CO)n1` (stereo not shown) [Example 184, 1-(1-(1-((2,3-dihydroxypropyl)carbamoyl)-1,2,3,4-tetrahydroisoquinolin-6-yl)-3-t-butyl-1H-pyrazol-5-yl)-3-(3-(pyridin-3-yloxy)phenyl)urea]: the IC50 at Abl kinase [1] (setting [4]) amounted to 10 nM. Take `O=C1CCc2cc(-n3nc(C4CCCC4)cc3NC(=O)Nc3cccc(Oc4cccnc4)c3)ccc2N1` [Example 133, 1-(3-cyclopentyl-1-(2-oxo-1,2,3,4-tetrahydroquinolin-6-yl)-1H-pyrazol-5-yl)-3-(3-(pyridin-3-yloxy)phenyl)urea]: at Abl kinase [1] (setting [4]), the IC50 was found to be 48 nM.

`CC(C)(C)c1cc(NC(=O)Nc2cccc(Cl)c2Cl)n(-c2ccc3c(=O)[nH]cnc3c2)n1` [Example 194, 1-(3-t-butyl-1-(4-oxo-3,4-dihydroquinazolin-7-yl)-1H-pyrazol-5-yl)-3-(2,3-dichlorophenyl)urea]: the IC50 on Abl kinase [1] (setting [4]) came to 540 nM. For `Cc1ccc(NC(=O)Nc2cc(C(C)(C)C)nn2-c2cccc(CC(=O)NCC(O)CO)c2)cc1Nc1ncccn1` (stereo not shown) [Example 38, 1-(3-t-butyl-1-(3-(2-(2,3-dihydroxypropylamino)-2-oxoethyl)phenyl)-1H-pyrazol-5-yl)-3-(4-methyl-3-(pyrimidin-2-ylamino)phenyl)urea], on Abl kinase [1] (setting [4]), the IC50 is 1400 nM. For `CC(C)(C)c1cc(NC(=O)Nc2cccc(Cl)c2Cl)n(-c2ccc3ncccc3c2)n1` [Example 52, 1-[3-t-butyl-1-(quinolin-6-yl)-1H-pyrazol-5-yl]-3-(2,3-dichlorophenyl)urea], the IC50 on Abl kinase [2] turned out to be 140 nM; on KDR kinase, 63 nM; against B-Raf(V599E) kinase, 1.8 nM; in assay [3], 23 nM.
